Experiments:
[1] = target: T1, chymotrypsin (Bos taurus, UniProt P00766); assay: Chymotrypsin-Inhibitory Activity; assay type: biochemical, bovine; details: 1 × 10^-6 M; read-out: Inhibition rate, chymotrypsin
T1 construct: purchased Sigma; host or cells: bovine pancreas
Protocol: (§1) Similarly, by following the procedure mentioned above, but employing a 50 mM Tris-HCl buffer (pH 8.0) as a buffer for measurement, a 0.2 μM solution of chymotrypsin (derived from bovine pancrease, Sigma) in the same buffer as an enzyme solution and a 200 μM solution of 7-(N-succinyl-leucyl-leucyl-valyl-tyrosyl)-4-methylcoumarinamide (Peptide Institute, Inc.) in the same buffer as a substrate solution. Each fluorescence (c1, c2 and c3) was also determined, respectively.
(§2) Using the fluorescence x1, x2 and x3 measured in the above-mentioned manner, the inhibitory rate against various proteases was calculated by the following formula where x stands for b, c, d, e or f: [formula]

[2] = target: T2, cathepsin B (Bos taurus, UniProt P07688); assay: Cathepsin B-Inhibitory Activity; assay type: biochemical, bovine; details: 1 × 10^-6 M; read-out: Inhibition rate, cathepsin B
T2 construct: purchased Sigma; host or cells: bovine spleen
Protocol: Similarly, by following the procedure mentioned above, but employing a 100 mM sodium phosphate buffer (pH 6.0; containing 1.33 mM EDTA Na2) as a buffer for measurement, a 0.02 μM solution of cathepsin B (derived from bovine spleen, Sigma) in the same buffer as an enzyme solution and a 200 μM solution of 7-(N-benzyloxycarbonyl-phenylaranyl-arginyl)-4-methylcoumarinamide (Peptide Institute, Inc.) in the same buffer as a substrate solution. Each fluorescence (f1, f2 and f3) was also determined, respectively.
as §2

[3] = target: T3, prolyl endopeptidase (Rattus norvegicus, UniProt O70196); assay: Prolyl Endopeptidase-Inhibitory Activity; assay type: biochemical; details: for inhibition at 1 µM: 1 × 10^-6 M, read-out: Inhibition rate, prolyl endopeptidase; for IC50: prolyl endopeptidase extracted from rat brain, pH 7.0, 30° C., preincubated 30 minutes, 1 hour
T3 construct: prolyl endopeptidase extracted from rat brain; from tissue; host or cells: rat brain
Protocol: A mixture of a 0.1M potassium sodium phosphate buffer (pH 7.0) (2675 μl), a solution of the compounds of the present invention in a 0.1M potassium sodium phosphate buffer (pH 7.0) (100 μl) and a solution of prolyl endopeptidase extracted from rat brain in a 25 mM sodium phosphate buffer (100 μl) [123 unit/1, pH 6.8, containing 1 mM dithiothreitol and 0.5 mM EDTA, prepared by the method described in J. Neurochem., 35, 527 (1980)] was preincubated at 30° C. for 30 minutes. Thereto was added a 0.2 mM solution of 7-(N-succinyl-glycyl-prolyl)-4-methylcoumarinamide (Peptide Institute, INC.) in a 0.1M potassium sodium phosphate buffer (pH 7.0) (125 μl), and the mixture was incubated at 30° C. for 1 hour. The reaction mixture was immersed in ice (0° C.) to terminate the reaction, and the fluorescence (a1) was determined ten minutes later (excitation at 370 nm and emission at 440 nm). Concurrently, there were conducted the experiment wherein, in the above system, the prolyl endopeptidase solution was substituted for a 25 mM sodium phosphate buffer (pH 6.8, containing 1 mM dithiothreitol and 0.5 mM EDTA) and the experiment wherein the solution of the compounds of the present invention was also substituted for a 0.1M potassium sodium phosphate buffer (pH 7.0). Each fluorescence (a2 and a3) was also determined respectively [See Tanpakushitsu Kakusan Koso, 29, 127 (1984)]. The prolyl endopeptidase-inhibition rate was calculated by the following formula, and IC50, a concentration of a compound producing 50% inhibition, was estimated by semilogarithmic graph paper. [formula]

[4] = target: T4, trypsin (Bos taurus, UniProt P00760); assay: Trypsin-Inhibitory Activity; assay type: biochemical, bovine; details: 1 × 10^-6 M; read-out: Inhibition rate, trypsin
T4 construct: purchased Sigma; host or cells: bovine pancreas
T4 sequence (P00760 24-246): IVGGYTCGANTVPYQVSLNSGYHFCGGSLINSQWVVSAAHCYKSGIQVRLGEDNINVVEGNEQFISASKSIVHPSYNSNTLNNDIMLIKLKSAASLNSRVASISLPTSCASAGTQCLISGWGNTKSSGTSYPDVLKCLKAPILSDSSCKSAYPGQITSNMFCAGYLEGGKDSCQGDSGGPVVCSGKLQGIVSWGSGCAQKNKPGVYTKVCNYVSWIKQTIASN
Protocol: In the present invention, a 50 mM Tris-HCl buffer (pH 8.0) was employed as a buffer for measurement.
To a mixture of the above-mentioned buffer (850 μl), a solution of the compounds of the present invention in the same buffer (50 μl) and a 0.02 μM solution of trypsin (derived from bovine pancreas, Sigma) in the same buffer (50 μl) was added a 200 μM solution of 7-(prolyl-phenylaranyl-arginyl)-4-methylcoumarinamide (Peptide Institute, Inc.) in the same buffer (50 μl), and the mixture was incubated at 30° C. for 1 hour. The reaction mixture was immersed in ice (0° C.) to terminate the reaction, and the fluorescence (b1) was determined 1 hour later (excitation at 370 nm and emission at 440 nm). Concurrently, there were conducted the experiment wherein, in the system above, the trypsin solution was substituted for a buffer alone, and the experiment wherein the solution of the compounds of the present invention was also substituted for a buffer above. Each fluorescence (b2 and b3) was also determined respectively.
as §2

[5] = system: leucine aminopeptidase; assay: Leucine Aminopeptidase-Inhibitory Activity; assay type: biochemical, swine; details: 1 × 10^-6 M
Protocol: as §1, with “leucine aminopeptidase” for “chymotrypsin”, “swine kidney,” for “bovine pancrease,”, “7-(leucyl-4-methylcoumarinamide” for “7-(N-succinyl-leucyl-leucyl-valyl-tyrosyl)-4-methylcoumarinamide”, “(d1, d2” for “(c1, c2”, “d3)” for “c3)”
as §2

[6] = target: T5, elastase (Sus scrofa, UniProt P00772); assay: Elastase-Inhibitory Activity; assay type: biochemical, swine; details: 1 × 10^-6 M; read-out: Inhibition rate, elastase
T5 construct: purchased Sigma; host or cells: swine pancreas
Protocol: Similarly, by following the procedure mentioned above, but employing a 1 mM Tris-HCl buffer (pH 8.5) as a buffer for measurement, a 0.2 μM solution of elastase (derived from swine pancreas, Sigma) in the same buffer as an enzyme solution and a 200 μM solution of 7-(N-succinyl-aranyl-prolyl-aranyl)-4-methylcoumarinamide (Peptide Institute, Inc.) in the same buffer as a substrate solution. Each fluorescence (e1, e2 and e3) was also determined, respectively.
as §2

T3 sequence (O70196 whole entry): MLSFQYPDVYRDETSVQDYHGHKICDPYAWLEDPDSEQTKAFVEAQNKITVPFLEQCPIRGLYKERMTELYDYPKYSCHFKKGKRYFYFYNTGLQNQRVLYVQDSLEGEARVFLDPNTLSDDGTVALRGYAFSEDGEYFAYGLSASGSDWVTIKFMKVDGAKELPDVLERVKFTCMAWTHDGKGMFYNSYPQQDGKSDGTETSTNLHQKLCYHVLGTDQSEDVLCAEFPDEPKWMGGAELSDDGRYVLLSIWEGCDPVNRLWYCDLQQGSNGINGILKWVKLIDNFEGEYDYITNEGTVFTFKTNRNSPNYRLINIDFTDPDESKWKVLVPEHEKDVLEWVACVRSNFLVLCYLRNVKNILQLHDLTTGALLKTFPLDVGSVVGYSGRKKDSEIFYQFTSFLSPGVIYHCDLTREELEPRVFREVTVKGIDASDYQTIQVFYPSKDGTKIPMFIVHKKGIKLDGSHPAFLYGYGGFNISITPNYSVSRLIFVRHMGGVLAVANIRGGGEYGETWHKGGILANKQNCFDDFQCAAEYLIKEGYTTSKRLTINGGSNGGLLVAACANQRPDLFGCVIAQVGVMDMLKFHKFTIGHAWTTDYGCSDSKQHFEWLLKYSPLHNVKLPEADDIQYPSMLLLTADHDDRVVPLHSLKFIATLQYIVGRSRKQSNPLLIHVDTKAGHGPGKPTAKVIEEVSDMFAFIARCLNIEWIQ
T5 sequence (P00772 27-266): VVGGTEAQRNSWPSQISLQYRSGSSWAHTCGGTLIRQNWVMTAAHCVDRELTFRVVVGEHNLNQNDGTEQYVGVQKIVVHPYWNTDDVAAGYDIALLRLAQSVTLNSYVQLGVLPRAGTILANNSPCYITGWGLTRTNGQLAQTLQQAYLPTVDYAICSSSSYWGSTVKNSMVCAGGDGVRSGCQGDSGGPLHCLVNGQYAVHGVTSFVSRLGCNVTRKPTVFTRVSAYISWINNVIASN

SMILES | inhibition at 1 µM [1] | inhibition at 1 µM [2] | inhibition at 1 µM [3] | IC50 [3] | inhibition at 1 µM [4] | Inhibition rate, leucine aminopeptidase [5] | inhibition at 1 µM [6]
CC(=O)ON=C[C@@H]1CCCN1C(=O)CCC(=O)NCc1ccc(Cl)cc1 [Compound 21, (2S)-1-[4-Oxo-4-(4-chlorobenzylamino)butanoyl]-2-pyrrolidinecarboxaldehyde O-acetyloxime] | 0% | 0% | 100% | 0.04 µM | 10% | 0% | 0%
N#C[C@@H]1CCCN1C(=O)CCC(=O)NCc1ccc(Cl)cc1 [Compound 22, (2S)-1-[4-Oxo-4-(4-chlorobenzylamino)butanoyl]-2-cyanopyrrolidine] | 0% | 0% | 100% | 0.01 µM | 0% | 0% | 0%

From patent US5118811A, “Amino acid derivatives possessing prolyl endopeptidase-inhibitory activities” (Japan Tobacco Inc., priority 1989, dated 1992)
